pIC50: −log10 of the molar value. Calls of active or inactive are those of the source. The calls are words filed in the database; no cut-off is given here.
How the values were obtained:
[1] = tested on: HCT-116; assay: Induction of apoptosis in human HCT-116 cells assessed as early apoptotic cells at 1 uM incubated for 3 days by annexinV-FITC/propidium iodide staining based flow cytometry (reference value: 7.67 %); assay type: functional; conditions: time 3 day
[2] = tested on: HCT-116; assay: Induction of cell cycle arrest in human HCT-116 cells assessed as G2/M phase cells at 1 uM incubated for 3 days by propidium iodide staining based flow cytometry (reference value: 68.35 %); assay type: functional; conditions: time 3 day
[3] = biological target: T1, Protein mono-ADP-ribosyltransferase PARP12 (Homo sapiens, UniProt Q9H0J9); assay: Inhibition of PARP-12 (unknown origin)
T1 sequence (Q9H0J9 whole entry): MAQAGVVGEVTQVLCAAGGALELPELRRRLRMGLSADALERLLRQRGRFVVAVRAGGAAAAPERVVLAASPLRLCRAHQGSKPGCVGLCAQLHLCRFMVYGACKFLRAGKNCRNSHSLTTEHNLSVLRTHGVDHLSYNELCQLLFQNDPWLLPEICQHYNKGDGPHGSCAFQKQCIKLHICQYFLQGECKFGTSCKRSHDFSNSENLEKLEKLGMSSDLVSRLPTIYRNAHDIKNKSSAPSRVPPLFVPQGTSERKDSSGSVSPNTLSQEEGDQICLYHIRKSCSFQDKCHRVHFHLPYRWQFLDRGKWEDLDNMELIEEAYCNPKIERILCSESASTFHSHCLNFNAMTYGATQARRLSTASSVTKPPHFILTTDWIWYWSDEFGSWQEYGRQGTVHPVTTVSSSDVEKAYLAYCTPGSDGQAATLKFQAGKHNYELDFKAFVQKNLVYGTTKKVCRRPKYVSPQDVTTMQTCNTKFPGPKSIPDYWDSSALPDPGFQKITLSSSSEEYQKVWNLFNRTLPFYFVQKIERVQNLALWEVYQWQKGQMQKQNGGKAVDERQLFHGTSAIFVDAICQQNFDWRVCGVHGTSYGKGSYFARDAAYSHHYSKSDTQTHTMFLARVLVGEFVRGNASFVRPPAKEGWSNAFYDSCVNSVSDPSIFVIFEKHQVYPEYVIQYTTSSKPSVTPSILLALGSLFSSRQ

[4] = tested on: HCT-116; assay: Induction of apoptosis in human HCT-116 cells assessed as viable cells at 1 uM incubated for 3 days by annexinV-FITC/propidium iodide staining based flow cytometry (reference value: 60.0 %); assay type: functional; conditions: HCT-116, 72 h, time 3 day, read-out: Activity
[5] = Toxicity in […] assessed as morphological changes in colon at 500 mg/kg, ip by H&E staining based histopathological analysis; assay type: organism-based; conditions: in vivo
[6] = Toxicity in […] assessed as effect on body weight at 500 mg/kg, ip administered as single dose and measured on day 2 (reference value: 23.25 +/- 2.22 g); assay type: organism-based; conditions: in vivo
[7] = tested on: HCT-116; assay: Induction of cell cycle arrest in human HCT-116 cells assessed as G0/G1 phase cells at 5 uM incubated for 3 days by propidium iodide staining based flow cytometry (reference value: 68.35 %); assay type: functional; conditions: time 3 day
[8] = Clearance in Sprague-Dawley rat at 10 mg/kg, po or 1 mg/kg, iv; assay type: ADME, organism-based; conditions: in vivo
[9] = biological target: Poly [ADP-ribose] polymerase 2 (Homo sapiens, UniProt Q9UGN5); assay: Inhibition of PAPR-2 (unknown origin)
Sequence of Poly [ADP-ribose] polymerase 2 (Q9UGN5 whole entry): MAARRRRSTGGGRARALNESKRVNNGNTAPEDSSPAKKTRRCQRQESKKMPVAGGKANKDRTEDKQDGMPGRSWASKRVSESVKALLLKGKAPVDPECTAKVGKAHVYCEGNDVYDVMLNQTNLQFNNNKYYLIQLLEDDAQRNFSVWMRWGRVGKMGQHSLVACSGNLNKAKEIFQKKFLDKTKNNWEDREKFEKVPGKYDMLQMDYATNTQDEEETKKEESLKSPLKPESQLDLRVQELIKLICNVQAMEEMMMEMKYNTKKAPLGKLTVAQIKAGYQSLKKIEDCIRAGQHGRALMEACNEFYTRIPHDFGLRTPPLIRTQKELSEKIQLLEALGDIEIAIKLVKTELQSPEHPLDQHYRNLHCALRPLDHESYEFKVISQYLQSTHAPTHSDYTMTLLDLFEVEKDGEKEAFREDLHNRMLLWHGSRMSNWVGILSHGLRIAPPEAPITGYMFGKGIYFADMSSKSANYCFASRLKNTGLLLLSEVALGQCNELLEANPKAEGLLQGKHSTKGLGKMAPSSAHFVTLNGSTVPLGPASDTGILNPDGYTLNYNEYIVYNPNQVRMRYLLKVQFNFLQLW

[10] = Toxicity in […] assessed as effect on body weight at 500 mg/kg, ip administered as single dose and measured on day 7 (reference value: 26.00 +/- 3.16 g); assay type: organism-based; conditions: in vivo
[11] = tested on: MDA-MB-468; assay: Antiproliferative activity against human MDA-MB-468 cells assessed as inhibition of cell growth incubated for 7 days by MTT assay; assay type: functional, cell-based; conditions: MDA-MB-468, 168 h
[12] = Cytotoxicity against mouse AML12 cells assessed as reduction in cell viability incubated for 7 days by MTT assay; assay type: toxicity, cell-based; conditions: time 7 day
[13] = biological target: T2, Protein mono-ADP-ribosyltransferase TIPARP (Homo sapiens, UniProt Q7Z3E1); assay: Inhibition of PARP-7 (unknown origin)
T2 sequence (Q7Z3E1 whole entry): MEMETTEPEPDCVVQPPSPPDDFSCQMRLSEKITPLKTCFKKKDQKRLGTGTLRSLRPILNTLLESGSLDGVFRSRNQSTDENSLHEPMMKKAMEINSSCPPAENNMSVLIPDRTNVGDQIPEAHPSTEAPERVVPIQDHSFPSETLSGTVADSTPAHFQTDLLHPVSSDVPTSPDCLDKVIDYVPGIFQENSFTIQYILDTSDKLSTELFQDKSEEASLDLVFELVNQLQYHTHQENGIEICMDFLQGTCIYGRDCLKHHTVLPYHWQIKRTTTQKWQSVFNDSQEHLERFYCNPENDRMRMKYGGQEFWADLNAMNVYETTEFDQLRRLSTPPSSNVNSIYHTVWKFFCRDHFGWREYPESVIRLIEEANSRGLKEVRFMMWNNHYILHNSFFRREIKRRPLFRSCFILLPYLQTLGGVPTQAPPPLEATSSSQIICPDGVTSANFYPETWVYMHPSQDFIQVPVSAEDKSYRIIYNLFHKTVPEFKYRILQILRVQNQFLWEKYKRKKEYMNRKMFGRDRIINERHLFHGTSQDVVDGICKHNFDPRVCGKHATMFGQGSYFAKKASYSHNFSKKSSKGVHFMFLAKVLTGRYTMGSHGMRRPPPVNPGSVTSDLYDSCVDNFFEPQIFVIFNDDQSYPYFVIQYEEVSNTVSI

[14] = tested on: HCT-116; assay: Induction of apoptosis in human HCT-116 cells assessed as necrotic cells at 5 uM incubated for 3 days by annexinV-FITC/propidium iodide staining based flow cytometry (reference value: 3.65 %); assay type: functional; conditions: time 3 day
[15] = tested on: HCT-116; assay: Inhibition of Wnt/beta-Catenin signaling in human HCT-116 cells assessed as decrease in cyclin D1 levels at 10 uM by Western blot analysis; assay type: cell-based
[16] = tested on: HCT-116; assay: Antitumor activity against human HCT-116 cells xenografted in BALB/c nude mouse assessed as tumor growth inhibition at 25 mg/kg, ip administered once daily for 28 days; assay type: functional; conditions: HCT-116, 672 h, time 28 day, read-out: TGI
[17] = tested on: HCT-116; assay: Inhibition of homologous recombinant repair in human HCT-116 cells assessed as reduction in RAD51 foci formation at 1 uM incubated for 72 hrs by DAPI staining based immunofluorescence analysis; assay type: functional, cell-based
[18] = tested on: HCT-116; assay: Inhibition of Wnt/beta-Catenin signaling in human HCT-116 cells assessed as increase in axin2 levels at 10 uM by Western blot analysis; assay type: cell-based
[19] = biological target: Protein mono-ADP-ribosyltransferase PARP14 (Homo sapiens, UniProt Q460N5); assay: Inhibition of PARP-14 (unknown origin)
Sequence of Protein mono-ADP-ribosyltransferase PARP14 (Q460N5 whole entry): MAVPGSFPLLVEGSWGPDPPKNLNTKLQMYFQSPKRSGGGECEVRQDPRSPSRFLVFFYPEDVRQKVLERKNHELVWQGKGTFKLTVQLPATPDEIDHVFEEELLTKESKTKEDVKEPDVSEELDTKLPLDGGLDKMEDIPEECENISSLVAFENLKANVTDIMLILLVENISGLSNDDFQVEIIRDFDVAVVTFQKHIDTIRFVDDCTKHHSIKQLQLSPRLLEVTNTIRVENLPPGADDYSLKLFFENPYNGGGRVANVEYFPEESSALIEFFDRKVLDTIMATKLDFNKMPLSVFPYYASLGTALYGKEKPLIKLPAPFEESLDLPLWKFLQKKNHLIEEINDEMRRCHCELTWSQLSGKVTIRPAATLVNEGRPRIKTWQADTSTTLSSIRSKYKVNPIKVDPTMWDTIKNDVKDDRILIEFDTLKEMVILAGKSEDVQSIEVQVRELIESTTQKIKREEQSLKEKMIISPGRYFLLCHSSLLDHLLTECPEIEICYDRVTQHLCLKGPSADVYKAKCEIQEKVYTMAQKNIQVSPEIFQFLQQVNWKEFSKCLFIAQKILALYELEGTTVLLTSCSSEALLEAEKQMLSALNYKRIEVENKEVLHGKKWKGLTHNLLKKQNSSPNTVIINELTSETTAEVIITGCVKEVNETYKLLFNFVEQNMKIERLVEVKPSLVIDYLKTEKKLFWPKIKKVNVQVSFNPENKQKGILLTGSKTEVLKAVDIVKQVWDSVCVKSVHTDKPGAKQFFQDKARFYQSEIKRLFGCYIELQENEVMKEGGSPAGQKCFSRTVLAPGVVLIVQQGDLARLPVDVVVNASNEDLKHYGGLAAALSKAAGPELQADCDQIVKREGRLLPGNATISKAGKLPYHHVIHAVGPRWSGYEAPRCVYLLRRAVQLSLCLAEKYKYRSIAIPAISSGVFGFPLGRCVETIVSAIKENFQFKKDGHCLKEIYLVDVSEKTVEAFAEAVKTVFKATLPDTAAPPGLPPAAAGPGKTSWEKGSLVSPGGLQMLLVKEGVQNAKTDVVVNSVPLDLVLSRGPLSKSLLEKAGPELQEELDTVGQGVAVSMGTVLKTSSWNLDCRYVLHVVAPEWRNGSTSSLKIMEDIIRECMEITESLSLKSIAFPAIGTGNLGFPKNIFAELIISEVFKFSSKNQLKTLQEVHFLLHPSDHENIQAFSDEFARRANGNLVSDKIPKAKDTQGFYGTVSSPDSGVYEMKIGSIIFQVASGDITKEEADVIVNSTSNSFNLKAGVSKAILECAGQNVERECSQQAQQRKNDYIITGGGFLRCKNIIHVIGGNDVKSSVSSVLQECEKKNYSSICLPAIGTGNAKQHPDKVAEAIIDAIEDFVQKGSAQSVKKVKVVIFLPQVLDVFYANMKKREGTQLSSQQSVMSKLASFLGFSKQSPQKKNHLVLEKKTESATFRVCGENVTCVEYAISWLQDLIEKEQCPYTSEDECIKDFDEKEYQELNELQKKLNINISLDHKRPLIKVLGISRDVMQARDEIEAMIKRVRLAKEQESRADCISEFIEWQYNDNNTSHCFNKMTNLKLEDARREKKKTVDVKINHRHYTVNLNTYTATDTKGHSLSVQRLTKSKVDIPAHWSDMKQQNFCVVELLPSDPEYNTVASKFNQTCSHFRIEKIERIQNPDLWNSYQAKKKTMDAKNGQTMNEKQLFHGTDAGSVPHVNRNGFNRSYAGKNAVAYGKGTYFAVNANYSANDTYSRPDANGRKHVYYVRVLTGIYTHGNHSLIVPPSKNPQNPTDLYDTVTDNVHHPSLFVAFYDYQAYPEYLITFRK

[20] = tested on: HCT-116; assay: Induction of apoptosis in human HCT-116 cells assessed as late apoptotic cells at 5 uM incubated for 3 days by annexinV-FITC/propidium iodide staining based flow cytometry (reference value: 8.71 %); assay type: functional; conditions: time 3 day
[21] = Toxicity in BALB/c nude mouse xenografted with human HCT116 cells at 25 to 100 mg/kg, ip administered once daily for 28 days; assay type: organism-based, HCT-116; conditions: in vivo, 672 h, dose 25-100 mg/kg, time 28 day

## COc1ccc(NC(=O)c2ccc(NC(=O)N3CCN(C(=O)c4cc(Cc5n[nH]c(=O)c6ccccc56)ccc4F)CC3)cc2)cc1
[1]
  Activity: 6.86%
[2]
  Activity: 31.42%
[3]
  pIC50: 6.43
[4]
  viability at 1 µM: 71.3%
[5]
  Activity: Non-Toxic
[6]
  Activity: 20.75 g
[7]
  Activity: 41.21%
[8]
  CL: 5.44 L/h/kg
[9]
  pIC50: 8.92
[10]
  Activity: 24.25 g
[11]
  pIC50: 7.05
[12]
  CC50 at 168 h: 117 µM
[13]
  pIC50: 7.82
[14]
  Activity: 8.56%
[15]
  inhibition: Active
[16]
  inhibition in vivo at 25 mg/kg: 31.7%
[17]
  inhibition: Active
[18]
  inhibition: Active
[19]
  pIC50: 5.86
[20]
  Activity: 39.5%
[21]
  Activity: Non-Toxic

— ChEMBL document CHEMBL5120857, “Rational design, synthesis and biological evaluation of dual PARP-1/2 and TNKS1/2 inhibitors for cancer therapy” (Eur J Med Chem, 2022)
